Patent US8361998B2, “Compounds and their use as IKACh blockers” (AstraZeneca AB, priority 2010, dated 2013)
pIC50: −log10 of the molar value.

Target: T1, human cardiac ion channel proteins hKir3.1/Kir3.4 (Homo sapiens, UniProt P48544+P48549)
T1 construct: expressed in transfected cells
T1 sequence (P48549 1-501): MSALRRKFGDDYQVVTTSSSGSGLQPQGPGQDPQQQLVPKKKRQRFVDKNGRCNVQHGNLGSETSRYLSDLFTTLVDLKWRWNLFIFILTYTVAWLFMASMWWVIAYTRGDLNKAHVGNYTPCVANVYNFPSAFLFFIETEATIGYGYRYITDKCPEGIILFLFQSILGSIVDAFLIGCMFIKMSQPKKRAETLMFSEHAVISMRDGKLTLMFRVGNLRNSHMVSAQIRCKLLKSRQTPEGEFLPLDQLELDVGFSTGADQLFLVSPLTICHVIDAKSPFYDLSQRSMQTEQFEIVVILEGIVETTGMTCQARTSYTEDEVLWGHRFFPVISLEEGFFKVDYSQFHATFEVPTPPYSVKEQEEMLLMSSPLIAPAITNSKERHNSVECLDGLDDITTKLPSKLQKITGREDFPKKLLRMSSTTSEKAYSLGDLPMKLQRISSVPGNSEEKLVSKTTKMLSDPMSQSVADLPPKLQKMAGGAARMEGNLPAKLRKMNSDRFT
T1 sequence (P48544 1-419): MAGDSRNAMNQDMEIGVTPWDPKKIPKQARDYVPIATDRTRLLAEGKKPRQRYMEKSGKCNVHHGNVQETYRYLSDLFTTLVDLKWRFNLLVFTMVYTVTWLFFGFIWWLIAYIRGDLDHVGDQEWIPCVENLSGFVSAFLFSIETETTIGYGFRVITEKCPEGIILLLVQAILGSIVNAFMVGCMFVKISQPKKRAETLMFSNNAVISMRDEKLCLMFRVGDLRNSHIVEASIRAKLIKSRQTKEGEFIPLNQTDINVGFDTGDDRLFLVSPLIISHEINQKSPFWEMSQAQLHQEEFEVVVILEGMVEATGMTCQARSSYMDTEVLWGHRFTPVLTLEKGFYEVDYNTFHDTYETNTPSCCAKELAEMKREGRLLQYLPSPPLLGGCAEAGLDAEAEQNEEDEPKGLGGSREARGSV
Assay: Atomic Absorption Screening (AAS) Rb efflux assay of hKir3.1/Kir3.4 block, carbachol/high K+ stimulated, 10-pt or 7-pt CR
Type: cell-based
Conditions: 7-pt CR (0.037 to 27 μmol/L), AAS Rb efflux, CHO-K1 cells expressing hKir3.1/Kir3.4; mean of >3 replicates; read-out: IKACh IC50 7-pt CR, AAS
Method in brief: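 Mean IC50s derive from >4 replicates over 0.003–67 μmol/L (10-point) or >3 replicates over 0.037–27 μmol/L (7-point), both threefold steps. Rb-loaded (3 h, 37° C) CHO-K1 cells stably expressing hKir3.1/Kir3.4 saw compound for 5 min at RT before 10-min channel opening by carbachol 10 μM/KCl 20 mM final. Released Rb was quantified by atomic absorption.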

| pIC50 | SMILES |
| --- | --- |
| 4.85 | CC(C)[C@@H](CN1CCCC1)N(C)C(=O)c1c(F)cccc1C(F)(F)F [Example 16.19, (S)-2-Fluoro-N-methyl-N-(3-methyl-1-(pyrrolidin-1-yl)butan-2-yl)-6-(trifluoromethyl)benzamide] |
| 5.40 | CC(C)[C@@H](CN1CCCCC1)N(C)C(=O)c1cccc(C(F)(F)F)c1 [Example 16.32, N-Methyl-N-[(1S)-2-methyl-1-(piperidin-1-ylmethyl)propyl]-3-(trifluoromethyl)-benzamide] |

Same assay, conditions: 10-pt CR (0.003 to 67 μmol/L), AAS Rb efflux, CHO-K1 cells expressing hKir3.1/Kir3.4; mean of >4 replicates; read-out: IKACh IC50 10-pt CR, AAS

| SMILES | pIC50 |
| --- | --- |
| CN(C(=O)c1ccc(Cl)cc1)C(CN1CC(O)C1)C1CCCC1 (single isomer, unassigned) [32.3, isomer 1] | 7.26 |
| CC[C@H](C)[C@@H](CN1CCCC1)N(C)C(=O)c1ccc(Cl)cc1 [Example 2.3, 4-Chloro-N-methyl-N-((2S,3S)-3-methyl-1-(pyrrolidin-1-yl)pentan-2-yl)benzamide] | 5.80 |
| CCC[C@@H](CN1CC(O)C1)N(C)C(=O)c1ccc(F)c(C(F)(F)F)c1 [Example 8.5, (S)-4-Fluoro-N-(1-(3-hydroxyazetidin-1-yl)pentan-2-yl)-N-methyl-3-(trifluoromethyl)benzamide] | 6.24 |
| CN(C(=O)c1ccc(F)c(C(F)(F)F)c1)[C@H](CN1CC(O)C1)C1CC1 [Example 7.5, (S)-N-(1-Cyclopropyl-2-(3-hydroxyazetidin-1-yl)ethyl)-4-fluoro-N-methyl-3-(trifluoromethyl)benzamide] | 5.74 |
| CC(C)[C@@H](CN1CC(F)C1)N(C)C(=O)c1ccc(F)c(Cl)c1 [Example 1.8, (S)-3-Chloro-4-fluoro-N-(1-(3-fluoroazetidin-1-yl)-3-methylbutan-2-yl)-N-methylbenzamide] | 4.96 |
| CC(C)[C@@H](CN1CC(O)C1)N(C)C(=O)c1ccc(Br)cc1 [Example 6.3, (S)-4-Bromo-N-(1-(3-hydroxyazetidin-1-yl)-3-methylbutan-2-yl)-N-methylbenzamide] | 5.60 |
| CC[C@@H](CN1CCCC1)N(C)C(=O)c1ccc(Br)cc1 [Example 17.1, (S)-4-Bromo-N-methyl-N-(1-(pyrrolidin-1-yl)butan-2-yl)benzamide] | 4.92 |
| CC[C@@H](CN1CC(O)C1)N(C)C(=O)c1ccc(Br)cc1 [Example 42, (S)-4-Bromo-N-(1-(3-hydroxyazetidin-1-yl)butan-2-yl)-N-methylbenzamide] | 5.40 |

The remaining lines, values ahead:

| pIC50 | SMILES |
| --- | --- |
| 6.92 | CCCC[C@@H](CN1CC(O)C1)N(C)C(=O)c1ccc(Cl)cc1 [Example 33.1, (S)-4-chloro-N-(1-(3-hydroxyazetidin-1-yl)hexan-2-yl)-N-methylbenzamide] |
| 4.74 | COc1cc(C(=O)N(C)[C@H](CN2CCCC(F)(F)C2)C(C)C)ccc1C [Example 16.4, (S)—N-(1-(3,3-Difluoropiperidin-1-yl)-3-methylbutan-2-yl)-3-methoxy-N,4-dimethylbenzamide] |
| 6.47 | COc1ccc(C(=O)N(C)[C@H](CN2CC(O)C2)C2CCC2)cc1C [Example 39.9, (S)—N-(1-Cyclobutyl-2-(3-hydroxyazetidin-1-yl)ethyl)-4-methoxy-N,3-dimethylbenzamide] |
| 4.92 | CN(C(=O)c1ccc(F)c(F)c1)[C@H](CN1CCC1)C1CC1 [Example 9.11, (S)-N-(2-(Azetidin-1-yl)-1-cyclopropylethyl)-3,4-difluoro-N-methylbenzamide] |
| 4.82 | CN(C(=O)c1ccc(F)cc1F)[C@@H](CN1CC(O)C1)C1CCC1 [Example 35.10, N-[(1R)-1-Cyclobutyl-2-(3-hydroxyazetidin-1-yl)ethyl]-2,4-difluoro-N-methylbenzamide] |
| 6.47 | CN(C(=O)c1ccc(C#N)cc1)C(CN1CC(O)C1)C1CCCC1 (single isomer, unassigned) [32.5, isomer 1] |
| 4.96 | COc1ccc(C(=O)N(C)[C@@H](CN2CC(O)C2)C2CCC2)cc1F [Example 35.13, N-[(1R)-1-Cyclobutyl-2-(3-hydroxyazetidin-1-yl)ethyl]-3-fluoro-4-methoxy-N-methylbenzamide] |
| 5.34 | CN(C(=O)c1ccc(F)cc1Cl)[C@@H](CN1CC(O)C1)C1CCC1 [Example 35.6, 2-Chloro-N-[(1R)-1-cyclobutyl-2-(3-hydroxyazetidin-1-yl)ethyl]-4-fluoro-N-methylbenzamide] |
| 5.57 | CCC[C@@H](CN1C[C@H](O)[C@H]1C)N(C)C(=O)c1ccc(F)c(F)c1 (relative stereo) [Example 43.3, 3,4-Difluoro-N—((S)-1-((2R*,3S*)-3-hydroxy-2-methylazetidin-1-yl)pentan-2-yl)-N-methylbenzamide] |
| 5.07 | CC(C)[C@@H](CN1CC(C)(O)C1)N(C)C(=O)c1ccc(Cl)cc1 [Example 9.7, (S)-4-Chloro-N-(1-(3-hydroxy-3-methylazetidin-1-yl)-3-methyl-butan-2-yl)-N-methylbenzamide] |
| 6.64 | CN(C(=O)c1ccc(C(F)(F)F)cc1)[C@H](CN1CC(O)C1)C1CCC1 [Example 39.8, (S)—N-(1-Cyclobutyl-2-(3-hydroxyazetidin-1-yl)ethyl)-N-methyl-4-(trifluoromethyl)benzamide] |
| 4.96 | CCCC[C@@H](CN1CC(O)C1)N(C)C(=O)c1ccc(O)cc1 [Example 33.6, 4-Hydroxy-N-[(2S)-1-(3-hydroxyazetidin-1-yl)hexan-2-yl]-N-methylbenzamide] |
| 5.80 | CC[C@@H](CN1CC(O)C1)N(C)C(=O)c1ccc(Cl)c(F)c1 [Example 39.11, (S)-4-Chloro-3-fluoro-N-(1-(3-hydroxyazetidin-1-yl)butan-2-yl)-N-methylbenzamide] |

Same assay, conditions: printed as IC50 >67 μM in the 10-pt CR assay or IC50 >27 μM in the 7-pt CR assay; assay format per compound not stated; read-out: IC50

| pIC50 | SMILES |
| --- | --- |
| < 4.57 | CC(C)[C@@H](CN1CC[C@H](O)C1)N(C)C(=O)c1cccc(C#N)c1 [3-Cyano-N-[(1S)-1-{[(3S)-3-hydroxypyrrolidin-1-yl]methyl}-2-methylpropyl]-N-methylbenzamide] |
| < 4.57 | CC(C)[C@@H](CCN1CCCC1)N(C)C(=O)c1ccccc1Cl [2-Chloro-N-methyl-N-[(1R)-2-methyl-1-(2-pyrrolidin-1-ylethyl)propyl]benzamide] |
| < 4.57 | CC(C)[C@@H](CN1CC(O)C1)N(C)C(=O)c1ccc(F)c(CO)c1 [4-Fluoro-N-[(1S)-1-[(3-hydroxyazetidin-1-yl)methyl]-2-methyl-propyl]-3-(hydroxymethyl)-N-methyl-benzamide] |
| < 4.57 | CC(C)[C@@H](CCN1CCCC1)N(C)C(=O)c1ccccc1 [N-Methyl-N-[(1R)-2-methyl-1-(2-pyrrolidin-1-ylethyl)propyl]benzamide] |
| < 4.57 | CCC[C@@H](CN1C[C@@H](O)[C@@H]1C)N(C)C(=O)c1ccc(F)c(F)c1 [3,4-Difluoro-N-((S)-1-((2S,3R)-3-hydroxy-2-methylazetidin-1-yl)pentan-2-yl)-N-methylbenzamide] |
| < 4.57 | CC(C)[C@@H](CCN1CCCC1)N(C)C(=O)c1ccc(Cl)cc1F [4-Chloro-2-fluoro-N-methyl-N-[(1R)-2-methyl-1-(2-pyrrolidin-1-ylethyl)propyl]benzamide] |
| < 4.57 | CC(C)[C@@H](CN1C[C@@H](O)[C@H](O)C1)N(C)C(=O)c1ccc(C#N)cc1 [4-Cyano-N-((S)-1-((3R,4R)-3,4-dihydroxypyrrolidin-1-yl)-3-methylbutan-2-yl)-N-methylbenzamide] |
| < 4.57 | CC(C)[C@@H](CN1CCC(F)(F)C1)N(C)C(=O)c1ccc(Br)cc1 [(S)-4-Bromo-N-(1-(3,3-difluoropyrrolidin-1-yl)-3-methylbutan-2-yl)-N-methylbenzamide] |
| < 4.57 | CC(C)[C@@H](CN1CC(F)(CO)C1)N(C)C(=O)c1ccc(F)c(F)c1 [(S)-3,4-Difluoro-N-(1-(3-fluoro-3-(hydroxymethyl)azetidin-1-yl)-3-methylbutan-2-yl)-N-methylbenzamide] |
| < 4.57 | CC(C)[C@@H](CN1CC(C)(O)C1)N(C)C(=O)c1ccc(F)cc1 [(S)-4-Fluoro-N-(1-(3-hydroxy-3-methylazetidin-1-yl)-3-methylbutan-2-yl)-N-methylbenzamide] |
| < 4.57 | CC(CN1CCCC1)N(C)C(=O)c1cccc(Cl)c1 (stereo not shown) [3-Chloro-N-methyl-N-(1-methyl-2-pyrrolidin-1-ylethyl)benzamide] |
